Literature values in patent US20050043329A1, “Crystalline forms of valacyclovir hydrochloride” (priority 2002, published 2005).

Legend:
[1] = after oral administration in healthy adults
[2] = after oral administration

absorption from the gastrointestinal tract [2]: rapidly absorbed
Structure (SMILES): CC(C)[C@H](N)C(=O)OCCOCn1cnc2c(=O)[nH]c(N)nc21 [valacyclovir, 1-valine, 2-[(2-amino-1,6-dihydro-6-oxo-9H-purin-9-yl)methoxy]ethyl ester]
conversion to acyclovir [1]: converted rapidly and virtually completely
